Measurements as given in PMC12668308, “A Novel Antimalarial Agent that Inhibits Protein Synthesis in Plasmodium falciparum” (Angewandte Chemie (International Ed. in English), 2025).
Read-outs that look alike come from different tables or passages of the source. One block for each compound: values may come before it.

Tests used:
[1] = tested on: P. falciparum NF54 strain; assay: [3H]-hypoxanthine incorporation assay, asexual blood stage; format: cell-based, Plasmodium falciparum; conditions: Plasmodium falciparum
Description: (§1) P. falciparum asexual blood stage parasites were cultured in human red blood cells (RBC, Blutspende SRK, Zurich) at a hematocrit of 5% in RPMI 1640 medium. The RPMI 1640 medium (ThermoFisher Scientific #51800−043) was supplemented with the following: 24 mM NaHCO3 (pH 7.3, Sigma-Aldrich #31437−500G-R), 25 mM Hepes (Sigma-Aldrich #H4034−500G), 0.36 mM hypoxanthine (Sigma-Aldrich # H9377−25G), 100 µg mL^-1 neomycin (Sigma-Aldrich #N6386−100G) and 0.5% Albumax II (Thermo Fisher #11021−045). Additionally, 2 mM choline chloride (279 mg/L, Sigma-Aldrich #C7527−100G) was added to the culture to block the induction of sexual commitment as described. ^[31^] The RPMI 1640 medium and components were dissolved in water (Milli-Q purified), stirred for at least 3 h, and then sterile filtered (0.22 μm pore size) with a bottle top filter (Corning # 431118). Parasite cultures were maintained in an atmosphere of 3% O2, 4% CO2, and 93% N2 in air-tight chambers at 37 °C. The [^3H]-hypoxanthine incorporation assay was used to test compound activity in the specific parasite lines as described.^[32^] Briefly, compounds were dissolved in DMSO (10 mM) and diluted in a hypoxanthine-free culture medium. A limiting dilution was performed over a 64-fold range (6-step twofold dilution) in a 96-well plate in duplicates. For every starting concentration, a limiting dilution was performed over a 64-fold range (6-step twofold dilution) in a 96-well plate in two biological duplicates. Parasites were added at 100 µL to each well containing the compound to obtain a final parasitemia of 0.3% and haematocrit of 1.25%. The plates were incubated for 48 h before 0.25 µCi of [^3H]-hypoxanthine was added per well for an additional 24 h. Parasites were harvested on a glass-fiber filter with a Microbeta FilterMate cell harvester (Perkin Elmer, Waltham, USA) and radioactivity was counted using a MicroBeta2 liquid scintillation counter (Perkin Elmer, Waltham, US). […] The fifty percent inhibitory concentration (IC50) was calculated by using nonlinear, four parameter (variable slope) curve fitting as described ^[33^] after importing into GraphPad Prism (version 8.3.0).

[2] = tested on: Dd2 DDD107458 (Dd2 + pfeEF2); assay: [3H]-hypoxanthine incorporation assay; format: cell-based, Plasmodium falciparum; conditions: Plasmodium falciparum, DD2, 72 h
Description: (§2) ^[a]72-h [^3H] hypoxanthhine incorporation assay. Data is expressed as mean±s.d..
(§3) P. falciparum asexual blood stage parasites were cultured in human red blood cells (RBC, Blutspende SRK, Zurich) at a hematocrit of 5% in RPMI 1640 medium. The RPMI 1640 medium (ThermoFisher Scientific #51800−043) was supplemented with the following: 24 mM NaHCO3 (pH 7.3, Sigma-Aldrich #31437−500G-R), 25 mM Hepes (Sigma-Aldrich #H4034−500G), 0.36 mM hypoxanthine (Sigma-Aldrich # H9377−25G), 100 µg mL^-1 neomycin (Sigma-Aldrich #N6386−100G) and 0.5% Albumax II (Thermo Fisher #11021−045). Additionally, 2 mM choline chloride (279 mg/L, Sigma-Aldrich #C7527−100G) was added to the culture to block the induction of sexual commitment as described. ^[31^] The RPMI 1640 medium and components were dissolved in water (Milli-Q purified), stirred for at least 3 h, and then sterile filtered (0.22 μm pore size) with a bottle top filter (Corning # 431118). Parasite cultures were maintained in an atmosphere of 3% O2, 4% CO2, and 93% N2 in air-tight chambers at 37 °C. The [^3H]-hypoxanthine incorporation assay was used to test compound activity in the specific parasite lines as described.^[32^] Briefly, compounds were dissolved in DMSO (10 mM) and diluted in a hypoxanthine-free culture medium. A limiting dilution was performed over a 64-fold range (6-step twofold dilution) in a 96-well plate in duplicates. For every starting concentration, a limiting dilution was performed over a 64-fold range (6-step twofold dilution) in a 96-well plate in two biological duplicates. Parasites were added at 100 µL to each well containing the compound to obtain a final parasitemia of 0.3% and haematocrit of 1.25%. The plates were incubated for 48 h before 0.25 µCi of [^3H]-hypoxanthine was added per well for an additional 24 h. Parasites were harvested on a glass-fiber filter with a Microbeta FilterMate cell harvester (Perkin Elmer, Waltham, USA) and radioactivity was counted using a MicroBeta2 liquid scintillation counter (Perkin Elmer, Waltham, US). The results were recorded, processed by subtraction of the mean background signal obtained from the uninfected RBC controls and expressed as percentage of untreated controls. The fifty percent inhibitory concentration (IC50) was calculated by using nonlinear, four parameter (variable slope) curve fitting as described ^[33^] after importing into GraphPad Prism (version 8.3.0).

[3] = tested on: Dd2 DSM265 (Dd2 + pfdhodh); assay: [3H]-hypoxanthine incorporation assay; format: cell-based, Plasmodium falciparum; conditions: Plasmodium falciparum, 72 h
Description: as §2, §3

[4] = tested on: Dd2 ELQ300 (Dd2 + pfcytb); assay: [3H]-hypoxanthine incorporation assay; format: cell-based, Plasmodium falciparum; conditions: Plasmodium falciparum, DD2, 72 h
Description: as §2, §3

[5] = tested on: Dd2 Fosmidomycin (Dd2 + pfdxr); assay: [3H]-hypoxanthine incorporation assay; format: cell-based, Plasmodium falciparum; conditions: Plasmodium falciparum, DD2, 72 h
Description: as §2, §3

[6] = tested on: Dd2 GNF156 (Dd2 + pfcarl); assay: [3H]-hypoxanthine incorporation assay; format: cell-based, Plasmodium falciparum; conditions: Plasmodium falciparum, DD2, 72 h
Description: as §2, §3

[7] = tested on: Dd2 MMV390048 (Dd2 + pfpI4k); assay: [3H]-hypoxanthine incorporation assay; format: cell-based, Plasmodium falciparum; conditions: Plasmodium falciparum, DD2, 72 h
Description: as §2, §3

[8] = tested on: Dd2 NITD609 (Dd2 + pfatp4); assay: [3H]-hypoxanthine incorporation assay; format: cell-based, Plasmodium falciparum; conditions: Plasmodium falciparum, DD2, 72 h
Description: as §2, §3

[9] = tested on: P. falciparum Dd2; assay: [3H]-hypoxanthine incorporation assay; format: cell-based, Plasmodium falciparum; conditions: Plasmodium falciparum, DD2, 72 h
Description: as §2, §3

[10] = tested on: P. falciparum K1; assay: [3H]-hypoxanthine incorporation assay; format: cell-based, Plasmodium falciparum; conditions: Plasmodium falciparum; K1; 72-h assay; mean±s.d.; read-out: IC50
Description: as §2, §3

[11] = tested on: Dd2b2^31-R1.1; assay: [3H]-hypoxanthine incorporation assay; format: cell-based, Plasmodium falciparum; conditions: Plasmodium falciparum, read-out: mean IC50 value ± s.d.
Description: as §1
(§4) 31 was used for resistance selection studies using the strain Dd2b2 (kindly provided by David Fidock). Resistance selection was done as described in ^[34^]. As summarized in Table S3, an initial inoculum of 2 x 10^9 asexual blood stage parasites (at 2-2.5% parasitemia) were cultured in three independent flasks. […] Cloning via limiting dilution was performed to obtain resistant clones for further characterization as described in section 2.2.5.

[12] = tested on: Dd2b2^31-R1.2; assay: [3H]-hypoxanthine incorporation assay; format: cell-based, Plasmodium falciparum; conditions: Plasmodium falciparum, read-out: mean IC50 value ± s.d.
Description: as §1, §4

[13] = tested on: Dd2b2^31-R2.1; assay: [3H]-hypoxanthine incorporation assay; format: cell-based, Plasmodium falciparum; conditions: Plasmodium falciparum, read-out: mean IC50 value ± s.d.
Description: as §1, §4

[14] = tested on: Dd2b2^31-R3.1; assay: [3H]-hypoxanthine incorporation assay; format: cell-based, Plasmodium falciparum; conditions: Plasmodium falciparum, read-out: mean IC50 value ± s.d.
Description: as §1, §4

[15] = tested on: Dd2b2^WT; assay: [3H]-hypoxanthine incorporation assay; format: cell-based, Plasmodium falciparum; conditions: Plasmodium falciparum, 72 h, read-out: Parent (Dd2b2^WT) IC50
Description: as §1, §4

[16] = tested on: 3D7^WT; assay: [3H]-hypoxanthine incorporation assay; format: cell-based; conditions: Plasmodium falciparum, 3D7; 72-h assay; mean±s.d.; read-out: 3D7^WT IC50
Description: ^[a] 72-h [^3H] hypoxanthhine incorporation assay; Data is expressed as mean±s.d.. The assay was performed in three independent biological experiments, each in biological duplicates.
as §3

[17] = molecular target: PfIspD (Plasmodium falciparum, UniProt W7KNE8); assay: PfIspD inhibition; format: biochemical; conditions: mean ± s.d.
Sequence of PfIspD (W7KNE8 entry or part of it): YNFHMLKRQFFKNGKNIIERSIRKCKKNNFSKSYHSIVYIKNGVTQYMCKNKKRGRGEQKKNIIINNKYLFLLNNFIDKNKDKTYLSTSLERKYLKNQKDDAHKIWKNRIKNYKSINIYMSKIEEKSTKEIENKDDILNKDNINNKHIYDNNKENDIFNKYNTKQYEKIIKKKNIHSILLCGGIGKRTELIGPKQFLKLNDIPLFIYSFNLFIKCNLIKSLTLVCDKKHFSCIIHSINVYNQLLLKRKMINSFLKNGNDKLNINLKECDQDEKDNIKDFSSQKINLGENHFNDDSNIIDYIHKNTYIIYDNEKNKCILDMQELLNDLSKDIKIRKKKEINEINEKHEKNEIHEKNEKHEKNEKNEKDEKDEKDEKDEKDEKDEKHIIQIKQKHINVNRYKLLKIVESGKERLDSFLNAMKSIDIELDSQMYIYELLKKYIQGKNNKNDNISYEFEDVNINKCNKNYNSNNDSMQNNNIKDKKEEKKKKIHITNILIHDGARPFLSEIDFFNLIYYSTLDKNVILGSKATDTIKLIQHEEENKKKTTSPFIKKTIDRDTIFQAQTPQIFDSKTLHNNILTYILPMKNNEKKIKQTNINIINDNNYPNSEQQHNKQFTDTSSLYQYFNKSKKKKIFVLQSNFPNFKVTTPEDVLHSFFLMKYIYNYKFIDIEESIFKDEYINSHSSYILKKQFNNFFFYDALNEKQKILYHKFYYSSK

[18] = tested on: mRNA translation in NF54 trophozoite-stage parasites; assay: Surface sensing of translation (SUnSET) assay; format: cell-based, Plasmodium falciparum; conditions: trophozoites 30–35 hpi; 31 at 3x, 50x, 100x IC50; 34 and pyrimethamine at 3x IC50
Description: To confirm the role of 31 as a translation inhibitor, the surface sensing of translation (SUnSET) assay was employed. This involves incubating the culture with a translation inhibitor, puromycin, a structural analogue of aminoacyl tRNA. Puromycin is incorporated in the nascent polypeptide chain and prevents further elongation. When puromcyin is used in sub‐lethal concentrations, incorporation of puromycin in neosynthesized protein correlates with the levels of mRNA translation (Figure 3c, lane2).^[ [27] ^] […] This trend was further confirmed by the quantified western blot signals (Figures 3d and S4C) that are consistent with the iSPP profiling results.
SUnSET: The SUnSET assay was done as described in. ^[27^]Tightly synchronized NF54 wild type parasites were treated with the compounds for 4h at 30-35 hpi (trophozoite stage). The following compounds and amounts used were: cycloheximide (3xIC50, 1,2 µM; Calbiochem), pyrimethamine (3xIC50, 21 nM; MedChemExpress), 34 (3xIC50, 12 µM), and 31 (3xIC50, 12 nM; 50xIC50, 200 nM; 100xIC50, 400 nM). Parasites were incubated with 1 µg mL^-1 (Sigma P8833) for 1 h at 37 °C and saponin lysis was performed.
Saponin lysis and Western blot: Saponin lysis was done on infected RBC at ~5% parasitemia to lyse erythrocytes. Parasite cultures were centrifuged at 1,200 g for 5 min at room temperature. Once the supernatant was discarded, 10 volumes of ice-cold 0.1% (w/v) saponin (Calbiochem 558255, dissolved in PBS, and filtered with 0,22) was added, incubated on ice for 10 min and centrifuged for 2,272 g for 15 min at 4 °C. […] The membrane was washed 3 times in PBS-T (3 min incubation in each washing step) and the signal was detected using the chemiluminescent substrate SuperSignal West Pico Plus (Thermo Scientific, REF 34580) and the imaging system Vilber Fusion FX7 Edge 17.10 SN. Quantification of Western blot signal was done by measuring the integrated density of each lane using ImageJ analysis software (version 1.54p). […]

SMILES: C[C@H]1[C@H](OC(=O)CCC(=O)O)O[C@@H]2O[C@@]3(C)CC[C@H]4[C@H](C)CC[C@@H]1[C@@]24OO3 [Artesunate, artesunate, reference compound]
IC50 ([1]; NF54, 72 h, Table S2, NF54 sensitive strain, 72-h assay, mean±s.d., read-out: IC50): 0.4 ± 0.07 nM | IC50 [2]: 0.2 ± 0.2 nM | IC50 [3]: 0.2 ± 0.01 nM | IC50 [4]: 0.2 ± 0.01 nM | IC50 [5]: 0.2 ± 0.01 nM | IC50 [6]: 0.2 ± 0.02 nM | IC50 [7]: 0.3 ± 0.1 nM | IC50 [8]: 0.2 ± 0.01 nM | IC50 [9]: 0.3 ± 0.2 nM | IC50 [10]: 0.2 ± 0.01 nM | IC50 [11]: 1.6 ± 0.3 nM | IC50 [12]: 2.2 ± 0.6 nM | IC50 [13]: 2.6 ± 1.5 nM | IC50 [14]: 1.2 ± 0.6 nM | IC50 [15]: 0.5 ± 0.1 nM | IC50 [16]: 0.6 ± 0.1 nM

IC50 ([1]; NF54, asexual blood stage, mean ± s.d., read-out: PfNF54 IC50 ± s.d.): 592 ± 77.6 nM | IC50 [17]: 15000 ± 4000 nM
SMILES: O=C(Nc1cc(S(=O)(=O)N2CCCC2)ccc1O)c1cccc(Oc2ccccc2)c1 [Compound 1, N-(2-Hydroxy-5-(pyrrolidin-1-ylsulfonyl)phenyl)-3-phenoxybenzamide]

SMILES: CCc1nc(N)nc(N)c1-c1ccc(Cl)cc1 [Pyrimethamine, reference compound]
mRNA translation (puromycin incorporation) [18]: did not reduce mRNA translation
